# Results from patent US9878054B2, “Polypeptide and lipophilic moiety conjugate compositions, formulations, and uses related thereto” (Tufts Medical Center, Inc., priority 2012, dated 2018).
# Where a SMILES comes first, the peptide text is derived from it. The star is where a group is joined. Palmitoyl = CCCCCCCCCCCCCCCC(=O)*
# Test system: baboon arterial thrombosis (platelet deposition)
# Assay: Baboon arterial-venous shunt Dacron graft thrombosis
# Type: in vivo, baboon (Papio anubis)
# Method: 10-14 kg baboons were administered 3 mg/kg or 6 mg/kg PZ-128 by a 45 min iv infusion versus 5% dextrose vehicle (n=2-6). A, Net platelet accumulation was measured during the first 60 minutes of thrombus growth on a femoral arterio-venous Dacron graft (4 mm ID) inserted between silicone rubber tubing segments comprising a high-flow shunt. Blood flow was maintained at 100 ml/min by distal clamping the shunt. Autologous platelets were radiolabeled with indium-111 (1 mCi), and reinjected into the animals before thrombosis experiments. B, Deposition of platelets (mean±SD) was quantified in the head plus tail regions of the thrombus by 111Indium-labeled platelet imaging with 5-minute data acquisition periods starting at 60 min after initiation of the infusion. Statistical significance was determined using a variance stabilizing LN (natural log) transformation and a repeated measures mixed effects model with an autoregressive covariance structure. Subjects (individual baboons) were included in the model as a random effect. P=0.606 for 3 mg/kg vs vehicle and P=0.0028 for 6 mg/kg vs vehicle.
# Baboon arterial thrombosis experiments were conducted to determine whether the PZ-128 micelles had the potential to inhibit arterial thrombosis in primates. An arterial-venous shunt equipped with a Dacron vascular graft with an internal lumen diameter of 4 mm at a high flow rate of 100 ml/min was used. Thrombogenesis was assessed by measuring platelet content of the head and tail regions of the developing thrombus (FIG. 4A) and quantified by ^111Indium-labeled platelet imaging over 60 min. PZ-128 micelles at a dose of 1 mg/kg had no effect on platelet-thrombus deposition in the baboon.
# Non-terminal thrombosis and platelet aggregation studies were performed on 12 healthy male baboons (Papio anubis) weighing 9-12 kg at the Oregon National Primate Research Center (ONPRC). […] Platelet counts and hematocrit were measured immediately. […]
smiles,measurement,setting,value
"CCCCCCCCCCCCCCCC(=O)N[C@@H](CCCCN)C(=O)N[C@@H](CCCCN)C(=O)N[C@@H](CO)C(=O)N[C@@H](CCCNC(=N)N)C(=O)N[C@@H](C)C(=O)N[C@@H](CC(C)C)C(=O)N[C@@H](Cc1ccccc1)C(N)=O [PZ-128, palmitate-KKSRALF-NH2] (Palmitoyl-KKSRALF-NH2)",Effect on platelet-thrombus deposition,1 mg/kg,no effect
same,Effect against platelet arterial thrombus formation vs vehicle,"3 mg/kg iv infusion, P=0.606",not significant
same,Effect against platelet arterial thrombus formation vs vehicle,"6 mg/kg iv infusion, P=0.0028",significant protective effect
